# Laboratory results reported in patent US20230148214A1, “INDAZOLES AND AZAINDAZOLES AS LRRK2 INHIBITORS” (ESCAPE Bio, Inc., priority 2020, published 2023).
# pIC50: −log10 of the molar value.
# How the values were obtained:
# LRRK2 G2019S = target: T1, LRRK2 G2019S (Homo sapiens, UniProt Q5S007, G2019S); assay: LRRK2 Kinase Activity Assay (LanthaScreen TR-FRET), G2019S; assay type: biochemical; details: recombinant G2019S-LRRK2, 25 μM ATP, 400 nM LRRKtide, 60 min; class symbols
# T1 construct: purchased Life Technologies PV4881
# T1 sequence (Q5S007 whole entry G2019S): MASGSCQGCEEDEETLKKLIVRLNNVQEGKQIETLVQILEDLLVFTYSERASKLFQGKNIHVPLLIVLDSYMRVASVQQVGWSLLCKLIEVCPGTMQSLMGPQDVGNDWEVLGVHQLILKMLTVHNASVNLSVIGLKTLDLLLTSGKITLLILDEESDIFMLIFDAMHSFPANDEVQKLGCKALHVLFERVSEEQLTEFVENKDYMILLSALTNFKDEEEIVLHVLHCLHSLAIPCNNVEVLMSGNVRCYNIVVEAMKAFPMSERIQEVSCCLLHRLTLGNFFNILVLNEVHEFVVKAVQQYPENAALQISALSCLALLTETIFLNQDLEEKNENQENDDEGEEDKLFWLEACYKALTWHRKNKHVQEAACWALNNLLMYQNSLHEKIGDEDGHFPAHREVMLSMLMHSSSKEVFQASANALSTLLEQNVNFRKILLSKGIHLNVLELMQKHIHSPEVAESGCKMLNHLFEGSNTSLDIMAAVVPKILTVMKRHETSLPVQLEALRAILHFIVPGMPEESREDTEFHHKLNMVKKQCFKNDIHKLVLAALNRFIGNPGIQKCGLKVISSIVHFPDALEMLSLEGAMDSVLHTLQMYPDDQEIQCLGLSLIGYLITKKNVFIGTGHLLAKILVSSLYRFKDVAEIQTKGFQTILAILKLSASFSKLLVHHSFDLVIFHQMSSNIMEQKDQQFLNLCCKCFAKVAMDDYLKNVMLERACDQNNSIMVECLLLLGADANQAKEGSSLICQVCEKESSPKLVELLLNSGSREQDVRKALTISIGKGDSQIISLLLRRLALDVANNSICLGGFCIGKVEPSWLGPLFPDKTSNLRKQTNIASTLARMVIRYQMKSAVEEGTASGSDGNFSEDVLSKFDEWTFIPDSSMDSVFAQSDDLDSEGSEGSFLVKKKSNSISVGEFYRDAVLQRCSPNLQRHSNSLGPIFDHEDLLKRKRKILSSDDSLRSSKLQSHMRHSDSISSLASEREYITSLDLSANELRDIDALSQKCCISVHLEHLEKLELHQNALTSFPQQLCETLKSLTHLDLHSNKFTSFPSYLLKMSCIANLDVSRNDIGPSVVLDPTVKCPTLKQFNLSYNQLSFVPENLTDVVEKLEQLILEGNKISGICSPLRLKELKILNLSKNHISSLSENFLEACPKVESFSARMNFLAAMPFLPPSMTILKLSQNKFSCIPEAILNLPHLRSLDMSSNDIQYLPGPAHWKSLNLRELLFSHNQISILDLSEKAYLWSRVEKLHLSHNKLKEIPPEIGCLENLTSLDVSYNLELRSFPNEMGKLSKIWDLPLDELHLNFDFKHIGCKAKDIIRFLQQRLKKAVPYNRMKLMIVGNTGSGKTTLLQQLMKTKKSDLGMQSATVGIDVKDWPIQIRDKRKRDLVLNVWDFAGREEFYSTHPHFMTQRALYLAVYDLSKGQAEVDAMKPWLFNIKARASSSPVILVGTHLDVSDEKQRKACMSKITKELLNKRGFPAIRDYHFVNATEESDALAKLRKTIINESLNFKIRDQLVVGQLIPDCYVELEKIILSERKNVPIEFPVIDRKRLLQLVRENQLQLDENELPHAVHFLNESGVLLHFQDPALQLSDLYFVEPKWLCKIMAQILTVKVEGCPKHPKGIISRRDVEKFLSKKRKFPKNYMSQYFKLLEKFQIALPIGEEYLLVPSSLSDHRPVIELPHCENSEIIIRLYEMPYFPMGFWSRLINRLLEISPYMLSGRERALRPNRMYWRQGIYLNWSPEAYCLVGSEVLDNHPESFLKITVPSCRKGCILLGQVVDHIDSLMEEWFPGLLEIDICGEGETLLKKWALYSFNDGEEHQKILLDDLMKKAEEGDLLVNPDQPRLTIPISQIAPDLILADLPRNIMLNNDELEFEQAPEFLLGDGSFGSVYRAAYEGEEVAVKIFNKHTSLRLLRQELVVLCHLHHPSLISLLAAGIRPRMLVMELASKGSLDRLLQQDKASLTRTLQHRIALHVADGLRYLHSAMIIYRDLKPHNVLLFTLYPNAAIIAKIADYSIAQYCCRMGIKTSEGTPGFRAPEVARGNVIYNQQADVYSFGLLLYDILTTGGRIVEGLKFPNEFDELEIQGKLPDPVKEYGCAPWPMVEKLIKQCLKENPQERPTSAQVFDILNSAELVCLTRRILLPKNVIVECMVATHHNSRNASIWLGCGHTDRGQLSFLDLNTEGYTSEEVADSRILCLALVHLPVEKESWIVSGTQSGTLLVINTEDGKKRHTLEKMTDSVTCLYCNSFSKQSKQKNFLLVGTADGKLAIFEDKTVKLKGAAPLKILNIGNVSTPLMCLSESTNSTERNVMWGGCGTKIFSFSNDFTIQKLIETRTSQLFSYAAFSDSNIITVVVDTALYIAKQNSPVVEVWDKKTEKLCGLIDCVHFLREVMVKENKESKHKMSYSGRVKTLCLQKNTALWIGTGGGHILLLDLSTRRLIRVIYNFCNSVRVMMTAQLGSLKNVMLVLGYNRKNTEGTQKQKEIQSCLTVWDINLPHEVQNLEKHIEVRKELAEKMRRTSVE
# Procedure, shortened: (§1)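 Recombinant wild-type or G2019S LRRK2 incubated with fluorescein-labeled LRRKtide (ERM-based) peptide, ATP and serially diluted compound for 60 min at room temperature.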
# LRRK2 WT = target: T2, LRRK2 WT (Homo sapiens, UniProt Q5S007); assay: LRRK2 Kinase Activity Assay (LanthaScreen TR-FRET), wild type; assay type: biochemical; details: recombinant wild type LRRK2, 25 μM ATP, 400 nM LRRKtide, 60 min; class symbols
# T2 construct: purchased Life Technologies PR8604B
# T2 sequence (Q5S007 whole entry): as the sequence (Q5S007 whole entry G2019S) above, with S2019G counted along it
# Procedure, shortened: as §1
pIC50 (LRRK2 G2019S),pIC50 (LRRK2 WT),Compound
> 7.00,6.00 to 7.00,"Cc1nc2c(c(C)c1C#N)CC[C@@H]2Nc1ccc2[nH]nc(-c3cnco3)c2c1 (single isomer, unassigned) [Example 170, enantiomer 2, 2,4-Dimethyl-7-[[3-(1,3-oxazol-5-yl)-1H-indazol-5-yl]amino]-6,7-dihydro-5H-cyclopenta[b]pyridine-3-carbonitrile]"
> 7.00,> 7.00,"N#Cc1cc2c(nc1Cl)[C@@H](Oc1ccc3[nH]nc(-c4cnco4)c3c1)CC2 (single isomer, unassigned) [Example 171, enantiomer 1, 2-Chloro-7-[[3-(1,3-oxazol-5-yl)-1H-indazol-5-yl]oxy]-6,7-dihydro-5H-cyclopenta[b]pyridine-3-carbonitrile]"
6.00 to 7.00,6.00 to 7.00,"CC1(C)Cc2cc(C#N)cnc2[C@H]1Nc1ccc2[nH]nc(-c3cnco3)c2c1 (single isomer, unassigned) [Example 172, enantiomer 1, 6,6-Dimethyl-7-[[3-(1,3-oxazol-5-yl)-1H-indazol-5-yl]amino]-5,7-dihydrocyclopenta[b]pyridine-3-carbonitrile]"
> 7.00,> 7.00,"CC1(C)Cc2cc(C#N)cnc2[C@H]1Nc1ccc2[nH]nc(-c3cnco3)c2c1 (single isomer, unassigned) [Example 172, enantiomer 2, 6,6-Dimethyl-7-[[3-(1,3-oxazol-5-yl)-1H-indazol-5-yl]amino]-5,7-dihydrocyclopenta[b]pyridine-3-carbonitrile]"
> 7.00,> 7.00,"C[C@H]1CCc2cc(C#N)ccc2[C@H]1Nc1ccc2[nH]nc(-c3cnco3)c2c1 (single isomer, unassigned) [Example 173, enantiomer 1, cis-6-Methyl-5-((3-(oxazol-5-yl)-1H-indazol-5-yl)amino)-5,6,7,8-tetrahydronaphthalene-2-carbonitrile]"
> 7.00,6.00 to 7.00,"C[C@H]1CCc2cc(C#N)ccc2[C@H]1Nc1ccc2[nH]nc(-c3cnco3)c2c1 (single isomer, unassigned) [Example 173, enantiomer 2, cis-6-Methyl-5-((3-(oxazol-5-yl)-1H-indazol-5-yl)amino)-5,6,7,8-tetrahydronaphthalene-2-carbonitrile]"
> 7.00,> 7.00,"C[C@@H]1CCc2cc(C#N)ccc2[C@H]1Nc1ccc2[nH]nc(-c3cnco3)c2c1 (single isomer, unassigned) [Example 174, enantiomer 1, trans-6-Methyl-5-((3-(oxazol-5-yl)-1H-indazol-5-yl)amino)-5,6,7,8-tetrahydronaphthalene-2-carbonitrile]"
> 7.00,6.00 to 7.00,"C[C@@H]1CCc2cc(C#N)ccc2[C@H]1Nc1ccc2[nH]nc(-c3cnco3)c2c1 (single isomer, unassigned) [Example 174, enantiomer 2, trans-6-Methyl-5-((3-(oxazol-5-yl)-1H-indazol-5-yl)amino)-5,6,7,8-tetrahydronaphthalene-2-carbonitrile]"
> 7.00,6.00 to 7.00,"N#Cc1ccc2c(c1)CCC2Nc1ccc2[nH]nc(-c3ccoc3)c2c1 (stereo not drawn) [Example 10, 1-((3-(Furan-3-yl)-1H-indazol-5-yl)amino)-2,3-dihydro-1H-indene-5-carbonitrile]"
> 7.00,6.00 to 7.00,"N#Cc1ccc2c(c1)CC[C@@H]2Oc1ccc2[nH]nc(I)c2c1 [Example 13, 1-((3-Iodo-1H-indazol-5-yl)oxy)-2,3-dihydro-1H-indene-5-carbonitrile]"
> 7.00,6.00 to 7.00,"N#Cc1cnc2c(c1)CC(F)(F)C2Nc1ccc2[nH]nc(-c3cnco3)c2c1 (stereo not drawn) [Example 34, 6,6-Difluoro-7-((3-(oxazol-5-yl)-1H-indazol-5-yl)amino)-6,7-dihydro-5H-cyclopenta[b]pyridine-3-carbonitrile]"
> 7.00,> 7.00,"N#Cc1ccc2c(c1)CCC[C@@H]2Nc1ccc2[nH]nc(-c3ccc4ncsc4c3)c2c1 [Example 59, 5-((3-(Benzo[d]thiazol-6-yl)-1H-indazol-5-yl)amino)-5,6,7,8-tetrahydronaphthalene-2-carbonitrile]"
